Data taken from patent US20050197350A1, “Novel quinoline, tetrahydroquinazoline, and pyrimidine derivatives and methods of treatment related to the use thereof” (TAISHO PHARMACEUTICAL CO., LTD., priority 2003, published 2005).

Tested on: MCH receptors
Experiment: MCH receptor activity class (method not given)
[1] = MCH receptor, class by percent of control at 10^-7 M or IC50
[2] = class by percent of control at 10^-7 M or IC50
[3] = class by percent of control at 10^−7 M or IC50
[4] = class 1-3 by percent of control at 10^-7 M or IC50
[5] = activity class 1-3: percent of control at 10^-7 M or IC50
[6] = MCH receptor activity class 1-3 (percent of control at 10^-7 M or IC50)
[7] = activity class per percent of control at 10^-7 M or IC50

With COc1cc(NC(=S)N[C@H]2CC[C@@H](Nc3nc4c(c(N(C)C)n3)CCCC4)CC2)cc(OC)c1 [compound 2006] the class [1] was 3 (Class 3 The value of percent of control at 10^−7 M was more than 60% or the value of IC50 was more than 200 nM.).

With CN(C)c1nc(N[C@H]2CC[C@@H](CNC(=O)c3ccccc3I)CC2)nc2c1CCCC2 [compound 657] the class [2] was 3 (Class 3 The value of percent of control at 10^−7 M was more than 60% or the value of IC50 was more than 200 nM.).

In the case of CN(C)c1ccnc(N[C@H]2CC[C@@H](NC(=O)Cc3ccc(Oc4ccccc4)cc3)CC2)n1 [compound 868], the class [2] is reported as 3 (Class 3 The value of percent of control at 10^−7 M was more than 60% or the value of IC50 was more than 200 nM.).

For COc1cccc([C@@H](C)NC(=O)[C@H]2CC[C@@H](Nc3ncc(C)c(N(C)C)n3)CC2)c1 [compound 2775, cis-4-{[4-(dimethylamino)-5-methylpyrimidin-2-yl]amino}-N-[(1R)-1-(3-methoxyphenyl)ethyl]cyclohexanecarboxamide], the class [3] was 1 (Class 1: The value of percent of control at 10^−7 M was less than 40% or the value of IC50 was less than 50 nM.).

For Cc1cccc(N(C)CC(=O)N[C@H]2CC[C@@H](Nc3ncc(C)c(N(C)C)n3)CC2)c1 [compound 2942], the class [3] was 1 (Class 1: The value of percent of control at 10^−7 M was less than 40% or the value of IC50 was less than 50 nM.).

In the case of CSc1ccccc1NC(=O)[C@H]1CC[C@@H](Nc2ncc(C)c(N(C)C)n2)CC1 [compound 2792], the class [3] is reported as 2 (Class 2: The value of percent of control at 10^−7 M was from 40% to 60% or the value of IC′50 was from 50 nM to 200 nM.).

With CCC(Oc1ccccc1)C(=O)NC[C@H]1CC[C@@H](Nc2cc(N(C)C)c3ccccc3n2)CC1 (relative stereo) [compound 175, N-[(cis-4-{[4-(dimethylamino)quinolin-2-yl]amino}cyclohexyl)methyl]-2-phenoxybutanamide] the class [1] was 3 (Class 3 The value of percent of control at 10^−7 M was more than 60% or the value of IC50 was more than 200 nM.).

Cc1ccc([N+](=O)[O-])c(NC(=O)NC[C@H]2CC[C@@H](Nc3nc4c(c(N(C)C)n3)CCCC4)CC2)c1C [compound 2489] was tested, and the class [2] was 2 (Class 2: The value of percent of control at 10^−7 M was from 40% to 60% or the value of IC′50 was from 50 nM to 200 nM.).

In the case of Cc1cnc(N[C@H]2CC[C@@H](NC(=O)c3ccc(F)c(C(F)(F)F)c3)CC2)nc1N(C)C [compound 2919], the class [3] is reported as 1 (Class 1: The value of percent of control at 10^−7 M was less than 40% or the value of IC50 was less than 50 nM.).

CCOc1cccc(CN[C@H]2CC[C@@H](Nc3nc4c(c(N(C)C)n3)CCCC4)CC2)c1 [compound 1486] was tested, and the class [2] was 3 (Class 3 The value of percent of control at 10^−7 M was more than 60% or the value of IC50 was more than 200 nM.).

CN(C)c1ccnc(N[C@H]2CC[C@@H](CNC(=O)c3c(Cl)cc(Cl)cc3Cl)CC2)n1 [compound 451] was tested, and the class [4] was 2 (Class 2: The value of percent of control at 10^−7 M was from 40% to 60% or the value of IC′50 was from 50 nM to 200 nM.).

CN(C)c1nc(N[C@H]2CC[C@@H](NC(=S)NCc3ccc(Cl)cc3)CC2)nc2c1CCCC2 [compound 2079] was tested, and the class [1] was 3 (Class 3 The value of percent of control at 10^−7 M was more than 60% or the value of IC50 was more than 200 nM.).

With CN(C)c1nc(NC2CCC(CNC(=O)OCc3ccc([N+](=O)[O-])cc3)CC2)nc2c1CCCC2 (centres unmarked) [compound 1608] the class [5] was 3 (Class 3 The value of percent of control at 10^−7 M was more than 60% or the value of IC50 was more than 200 nM.).

With CN(C)c1ccnc(N[C@H]2CC[C@@H](CNC(=O)C(c3ccccc3)c3ccccc3)CC2)n1 [compound 377, N-[(cis-4-{[4-(dimethylamino)pyrimidin-2-yl]amino}cyclohexyl)methyl]-2,2-diphenylacetamide] the class [2] was 1 (Class 1: The value of percent of control at 10^−7 M was less than 40% or the value of IC50 was less than 50 nM.).

With CC(=O)c1cccc(C(=O)N[C@H]2CC[C@@H](Nc3nccc(N(C)C)n3)CC2)c1 [compound 831] the class [2] was 2 (Class 2: The value of percent of control at 10^−7 M was from 40% to 60% or the value of IC′50 was from 50 nM to 200 nM.).

With CN(C)c1nc(N[C@H]2CC[C@@H](NC(=O)c3cnc4ccccc4n3)CC2)nc2c1CCCC2 [compound 550] the class [4] was 1 (Class 1: The value of percent of control at 10^−7 M was less than 40% or the value of IC50 was less than 50 nM.).

For Cc1cc(C)c(NC(=O)NC[C@H]2CC[C@@H](Nc3nc4c(c(N(C)C)n3)CCCC4)CC2)c(C)c1 [compound 2459], the class [6] was 1 (Class 1: The value of percent of control at 10^−7 M was less than 40% or the value of IC50 was less than 50 nM.).

With CN(C)c1nc(N[C@H]2CC[C@@H](NC(=O)c3cn(S(=O)(=O)c4ccccc4)c4ccccc34)CC2)nc2c1CCCC2 [compound 1045] the class [7] was 3 (Class 3 The value of percent of control at 10^−7 M was more than 60% or the value of IC50 was more than 200 nM.).

CN(C)c1cc(N[C@H]2CC[C@@H](NC(=O)Oc3ccc(Br)cc3)CC2)nc2ccccc12 [compound 1543] was tested, and the class [5] was 3 (Class 3 The value of percent of control at 10^−7 M was more than 60% or the value of IC50 was more than 200 nM.).

In the case of CN(C)c1ccnc(N[C@H]2CC[C@@H](NC(=O)Nc3ccccc3Cl)CC2)n1 [compound 2179], the class [2] is reported as 3 (Class 3 The value of percent of control at 10^−7 M was more than 60% or the value of IC50 was more than 200 nM.).

With C[C@@H](c1ccccc1)N(C(=O)c1ccccc1C(=O)N[C@H]1CC[C@@H](Nc2cc(N(C)C)c3ccccc3n2)CC1)[C@@H](C)c1ccccc1 [compound 739] the class [2] was 3 (Class 3 The value of percent of control at 10^−7 M was more than 60% or the value of IC50 was more than 200 nM.).

For CCCc1c(CNC[C@H]2CC[C@@H](Nc3nc4c(c(N(C)C)n3)CCCC4)CC2)cnn1-c1ccccc1 [compound 1510], the class [2] was 1 (Class 1: The value of percent of control at 10^−7 M was less than 40% or the value of IC50 was less than 50 nM.).

With Cc1c(Cl)cccc1NC(=O)NC[C@H]1CC[C@@H](Nc2nc3c(c(N(C)C)n2)CCCC3)CC1 [compound 2477] the class [6] was 2 (Class 2: The value of percent of control at 10^−7 M was from 40% to 60% or the value of IC′50 was from 50 nM to 200 nM.).

Cc1cnc(NC[C@H]2CC[C@@H](NC(=O)c3ccc(C#N)cc3)CC2)nc1N(C)C [compound 2723] was tested, and the class [3] was 3 (Class 3 The value of percent of control at 10^−7 M was more than 60% or the value of IC50 was more than 200 nM.).

With CSc1ncccc1C(=O)N[C@H]1CC[C@@H](Nc2cc(N(C)C)c3ccccc3n2)CC1 [compound 42] the class [1] was 3 (Class 3 The value of percent of control at 10^−7 M was more than 60% or the value of IC50 was more than 200 nM.).

In the case of CN(C)c1ccnc(N[C@H]2CC[C@@H](NC(=O)c3ccc(Cl)c(Cl)c3)CC2)n1 [compound 249], the class [2] is reported as 1 (Class 1: The value of percent of control at 10^−7 M was less than 40% or the value of IC50 was less than 50 nM.).

For CN(C)c1cc(N[C@H]2CC[C@@H](CNC(=O)C3CC(=O)c4ccccc43)CC2)nc2ccccc12 (relative stereo) [compound 798], the class [2] was 3 (Class 3 The value of percent of control at 10^−7 M was more than 60% or the value of IC50 was more than 200 nM.).

With COc1ccc(CNC[C@H]2CC[C@@H](Nc3cc(N(C)C)c4ccccc4n3)CC2)c(OC)c1 [compound 1131] the class [7] was 3 (Class 3 The value of percent of control at 10^−7 M was more than 60% or the value of IC50 was more than 200 nM.).

In the case of CSc1ncccc1C(=O)N[C@H]1CC[C@@H](Nc2nccc(N(C)C)n2)CC1 [compound 260], the class [2] is reported as 3 (Class 3 The value of percent of control at 10^−7 M was more than 60% or the value of IC50 was more than 200 nM.).

With Cc1cccc(Cl)c1NC(=O)NC[C@H]1CC[C@@H](Nc2cc(N(C)C)c3ccccc3n2)CC1 [compound 2374] the class [6] was 3 (Class 3 The value of percent of control at 10^−7 M was more than 60% or the value of IC50 was more than 200 nM.).

In the case of COc1ccccc1/C=C/CN[C@H]1CC[C@@H](Nc2nccc(N(C)C)n2)CC1 [compound 1233], the class [2] is reported as 3 (Class 3 The value of percent of control at 10^−7 M was more than 60% or the value of IC50 was more than 200 nM.).

For CN(C)c1nc(N[C@H]2CC[C@@H](NC(=O)Nc3ccc(C(C)(C)C)cc3)CC2)nc2c1CCCC2 [compound 1918], the class [1] was 3 (Class 3 The value of percent of control at 10^−7 M was more than 60% or the value of IC50 was more than 200 nM.).

With CN(C)c1nc(N[C@H]2CC[C@@H](CNC(=O)CC3=CCCCC3)CC2)nc2c1CCCC2 [compound 1079] the class [7] was 3 (Class 3 The value of percent of control at 10^−7 M was more than 60% or the value of IC50 was more than 200 nM.).

Cc1cc(N(C)C)nc(N[C@H]2CC[C@@H](CNC(=O)c3ccc(C(F)(F)F)c(F)c3)CC2)n1 [compound 2765] was tested, and the class [3] was 2 (Class 2: The value of percent of control at 10^−7 M was from 40% to 60% or the value of IC′50 was from 50 nM to 200 nM.).

With Cc1cc(F)ccc1NC(=S)N[C@H]1CC[C@@H](Nc2nc3c(c(N(C)C)n2)CCCC3)CC1 [compound 1775] the class [2] was 2 (Class 2: The value of percent of control at 10^−7 M was from 40% to 60% or the value of IC′50 was from 50 nM to 200 nM.).

For CN(C)c1ccnc(N[C@H]2CC[C@@H](NCc3c[nH]c4ccccc34)CC2)n1 [compound 1207], the class [2] was 3 (Class 3 The value of percent of control at 10^−7 M was more than 60% or the value of IC50 was more than 200 nM.).

With COc1cccc(C(=O)NC[C@H]2CC[C@@H](Nc3cc(N(C)C)c4ccccc4n3)CC2)c1 [compound 147, N-[(cis-4-{[4-(dimethylamino)quinolin-2-yl]amino}cyclohexyl)methyl]-3-methoxybenzamide] the class [1] was 3 (Class 3 The value of percent of control at 10^−7 M was more than 60% or the value of IC50 was more than 200 nM.).

For CCc1ccc(NC(=S)N[C@H]2CC[C@@H](Nc3nc4c(c(N(C)C)n3)CCCC4)CC2)cc1 [compound 1966], the class [1] was 3 (Class 3 The value of percent of control at 10^−7 M was more than 60% or the value of IC50 was more than 200 nM.).
